# Experiments:
# [1] = test system: ICR mice with sepsis induced by cecal ligation and puncture; assay: Cecal ligation and puncture (CLP) model test, survival in sepsis; format: in vivo; details: 5 ICR mice; for 48-hour survival rate (%) (Mice survived/All mice): control 0% (0/5); for 24-hour survival rate (%) (Mice survived/All mice): control 20% (1/5)
# Source text: Cecal Ligation and Puncture (CLP) Model Test
# To verify excellent preventive and therapeutic effects of LPA as an effective ingredient of the pharmaceutical composition according to the present invention on sepsis, this test using CLP model animals in which sepsis was caused by inducing peritonitis by cecal ligation and puncture was undertaken.
# After anesthetizing 15 ICR mice (weighing about 25 to 30 g; availably from MJ Ltd.) with pentobarbital, a right region of their abdomen was excised in 1 cm length to expose cecum, followed by ligating the lower area of ileocecal valve, making six punctures on the cecum with a 21 gauge needle and then suturing the abdomen, thereby inducing sepsis with the model mice.
# At 2 and 4 hours after suturing, LPA(oleoyl-sn-glycerol-3-phosphate; Sigma Co.) dissolved in 10% DMSO solution was intraperitoneally administered to 5 ICR mice at a dose of about 10 mg/kg (Group A) and to another 5 ICR mice at a dose of about 50 mg/kg (Group B), and only a 10% DMSO solution was intraperitoneally administered to the other 5 ICR mice (Control group). The survival rates of ICR mice in groups A and B and control group were investigated in course of time.
# [2] = test system: Sprague-Dawley rats with permanent focal cerebral ischemia by occlusion of middle cerebral artery; assay: Rat model with permanent focal cerebral ischemia by occlusion of middle cerebral artery, infarct area and volume; format: in vivo; details: 20 mg/kg subcutaneously at 1 hour before and 2 and 6 hours after surgery
# Source text: To verify excellent preventive and therapeutic effects of LPA as an effective component of the pharmaceutical composition according to the present invention on stroke, the test using rat models induced with permanent focal cerebral ischemia by occlusion of middle cerebral artery, designed as follows, was undertaken.
# Rat Model Induced with Permanent Focal Cerebral Ischemia by Occulusion of Middle Cerebral Artery
# 12 male Sprague-Dawley rats weighing about 250 to 269 g, were anaesthetized through inhalation of a mixed solution of 70% […] and 30% oxygen gas, the solution containing 2% isoflurane (Choongwae Pharma Corp., Korea), and then subjected to a slightly modified Nagasawa and Kogure's method (Nagasawa H and Kogure K (1989) Correlation between cerebral blood flow and histologic changes in a new rat model of middle cerebral artery occlusion. Stroke 20: 1037-1043), leading to occlusion of their right middle cerebral artery. Specifically, rats were anaesthetized, and then their cervix was incised along by the middle line of their neck. Then, after separately ligating their right common carotid artery and their external carotid artery carefully so as not to cause damage to their vagus nerve, the junction of their internal carotid artery were slightly cut and then a 17 mm long silicon rubber cylinder was carefully inserted thereinto, followed by ligating the internal carotid artery on the inserted cylinder. […]
# At 24 hours after surgery, the rats of the test group and the control group were decapitated, and their brains were rapidly extracted, followed by washing with a cold saline solution. […] After the brain sections stained with TTC were fixed with 10% phosphate-buffered formalin, the area of cerebral infarcts on the posterior side of each section, which was visualized as an area of unstained tissue, was determined separately for cortex and striatum, by using an image analyzer.
# In order to correct a change in the area of cerebral infarcts due to cerebral edema, the area of cerebral infarcts on each section was determined by subtracting the […] area in the right hemisphere with occluded middle cerebral artery from the area of the left hemisphere with unoccluded middle cerebral artery. Total areas of cerebral infarcts, obtained by summing the areas of infarcts in cortex and striatum that were measured at each brain section, were averaged, and the results were shown in FIG. 1. […]
# [3] = Group A: about 10 mg/kg intraperitoneally at 2 and 4 hours after suturing
# [4] = Group B: about 50 mg/kg intraperitoneally at 2 and 4 hours after suturing
# [5] = 24 hours after surgery, mean±standard deviation, 4 test rats, p<0.001
substance,measurement,setting,value
oleoyl-sn-glycerol-3-phosphate [LPA],48-hour survival rate (%) (Mice survived/All mice),[1]; [3],40% (2/5)
same,24-hour survival rate (%) (Mice survived/All mice),[1]; [3],60% (3/5)
same,48-hour survival rate (%) (Mice survived/All mice),[1]; [4],40% (2/5)
same,24-hour survival rate (%) (Mice survived/All mice),[1]; [4],60% (3/5)
same,reduction of the infarcted volume in cortex compared with control group rats,[2]; [5],44.6±3.6%
same,reduction of the infarcted volume in striatum compared with control group rats,[2]; [5],55.3±21.0%
same,reduction of total infarcted volume compared with control group rats,[2]; [5],47.8±7.1%
same,total area of infarcts (cortex and striatum) compared to control group rats,"[2]; measured 24 hours after surgery, FIG. 1",noticeable reduction in total area of infarcts
